Measurements as given in patent US11375718B2, “Use of prodigiosin in resisting potyvirus” (priority 2020, dated 2022).
Residues, ends and D or L forms follow the SMILES beside them. *: point of attachment. Cbz = O=C(OCc1ccccc1)*

Experiments:
Hsp70 protein = experiment: Western blot of Hsp70 protein in MG-132-treated plants induced by prodigiosin S3; format: in vivo, Nicotiana benthamiana
Method: In order to further analyze the role of ubiquitination modification in the antiviral mechanism of prodigiosin S3, we used MG-132 to treat Nicotiana benthamiana in advance. After 2 h, 0.05 μg/L prodigiosin was applied on the tobacco leaf surface uniformly according to 15 L/mu. After 30 minutes, TMV and PVY viruses were inoculated. The samples of 1 d, 2 d and 3 d after virus inoculation were collected for Western Blot analysis.

26S proteasome complex = conditions: read-out: IC50 (proteasome inhibitor); cited from earlier work
TMV = experiment: Induced resistance of tobacco to TMV after leaf application of prodigiosin; format: in vivo, Nicotiana tabacum cv. NC89; conditions: infiltration treatment
Method: (§1) The plant material used in this experiment was Nicotiana tabacum cv. NC89, reproduced by our laboratory and cultivated in a greenhouse. Experimental plant culture conditions included: illumination 16 h, temperature 25±1° C., illumination intensity 2000 lux and relative humidity 60%; and dark duration 8 h, temperature 25±1° C. and relative humidity 60%. The nutrient substrate was produced by the Wode nutrient soil processing plant in Shouguang City, Shandong Province, and no additional fertilization was needed during plant growth. The sources of TMV and PVY were preserved by the Plant Protection Research Center of the Institute of Tobacco Research of CAAC (Chinese Academy of Agricultural Sciences), and were propagated and preserved on Nicotiana tabacum cv. NC89 grown in the greenhouse. The prodigiosin S3 was isolated and purified from Serratia marcescens fermentation broth by Plant Protection Research Center of the Institute of Tobacco Research of CAAC.

PVY = experiment: Induced resistance of tobacco to PVY after leaf application of prodigiosin; format: in vivo, Nicotiana tabacum cv. NC89; conditions: infiltration treatment
Method: as §1

[1] = Quantitative proteomics and ubiquitination omics of prodigiosin-treated tobacco leaves; format: in vivo, Nicotiana benthamiana; conditions: treatment group vs control group, p<0.05
From the text: In order to further understand the mechanism of systemic resistance of a plant induced by prodigiosin, the prodigiosin treated Nicotiana benthamiana was used as a target material, the optimal reaction time point of prodigiosin against PVY was selected, and the quantitative proteomics and ubiquitinated nonstandard quantitative proteomics in tobacco leaves were studied by organically combining a series of advanced technologies such as non-standard quantitative technology, high performance liquid chromatography (HPLC) fractionation technology, ubiquitinated peptide enrichment technology and quantitative proteomics technology based on mass spectrometry.
Extraction of protein. The leaf sample was taken from −80° C., put in a mortar precooled with liquid nitrogen, fed with liquid nitrogen, and fully ground to powder; 4 times the volume of powdered lysis buffer (8 M urea, 1% TritonX-100, 10 mM DTT, 1% protease inhibitor and 50 μM PR-619) was added for ultrasonic lysis; followed by 10 min of centrifugation (4° C., 20000 g), the supernatant was carefully aspirated off, and trichloroacetic acid was added to a final concentration of 20%; the mixture was left at 4° C. for 2 h; and centrifuged (4° C., 20000 g) for 3 min. The supernatant was discharged, and the precipitate was washed with precooled acetone for three times; the precipitate was re-dissolved (8 M urea) and the protein concentration was determined.
Proteolysis. DTT was added to the protein solution to a final concentration of 5 mM and was reduced at 56° C. for 30 min. Iodoacetamide was then added and incubated for 15 min at room temperature away from light. Pancreatin was added based on a mass ratio of pancreatin:protein=1:50 and enzymolysis was performed at 37° C. overnight. Pancreatin was added again based on a mass ratio of pancreatin:protein=1:100 and enzymolysis was continued for 4 h.
HPLC Fractionation. The enzymatic solution was fractionated by high pH reverse phase HPLC on an Agilent 300 Extend C18 (5 μm particle size, 4.6 mm internal diameter, 250 mm length) column. The operation was as follows: a peptide fragment grading gradient was 8%-32% acetonitrile, the pH was 9; 60 components were separated in 60 min, then the components were combined into 4 components, and the combined components were subjected to lyophilization for subsequent operations.
HPLC-MS Analysis. The lyophilized fractions were analyzed by HPLC-MS: dissolved by a mobile phase A phase (0.1% (v/v) formic acid in water) and separated using EASY-nLC 1000 ultra high performance liquid phase system. […]
Database Search. […] Differential genes and proteins were analyzed by GO enrichment, and KEGG pathway.

[2] = 2031 sites on 1110 proteins identified

Compound: CC(C)C[C@@H](C=O)NC(=O)[C@H](CC(C)C)NC(=O)[C@H](CC(C)C)NC(=O)OCc1ccccc1 [MG-132] (Cbz-Leu-Leu-Leu-aldehyde)
- content of Hsp70 protein (Hsp70 protein; MG-132-treated samples induced by prodigiosin S3): increases significantly
- accumulation of Hsp70 protein (Hsp70 protein; MG-132 in advance, after 2 h 0.05 μg/L prodigiosin at 15 L/mu, inoculated after 30 minutes, PVY virus 1 d, vs control group): significantly increased
- IC50 (26S proteasome complex): 100 nM

Compound: CCCCCC1=C/C(=C/c2[nH]c(-c3ccc[nH]3)cc2OC)N=C1C [prodigiosin]
- induced resistance to TMV (TMV): 100%
- induced resistance to PVY (PVY): 100%
- number of ubiquitination sites with down-regulated modification level [1, 2]: 21
- number of ubiquitination sites with up-regulated modification level [1, 2]: 33
- number of proteins with down-regulated expression ([1]; 6122 proteins identified): 186
- number of proteins with up-regulated expression ([1]; 6122 proteins identified): 223
